Results on 5 compounds are retold here after ChEMBL document CHEMBL1275550, “In vitro activity of doripenem, a carbapenem for the treatment of challenging infections caused by gram-negative bacteria, against recent clinical isolates from the United States” (2008).

Common to all, as to type: functional
For assay [1], the system named is Escherichia coli. The assay is described as follows: Antimicrobial activity against Non-ESBL Escherichia coli assessed as resistant isolate by broth microdilution method. (In general: Dilution methods test growth across graded concentrations, often in twofold steps.)
Assay [2] concerns Escherichia coli. The assay is described as follows: Antimicrobial activity against ESBL producing Escherichia coli assessed as resistant isolate by broth microdilution method.
Assay [3] deals with Klebsiella pneumoniae. The assay is described as follows: Antimicrobial activity against Non-ESBL Klebsiella pneumoniae assessed as resistant isolate by broth microdilution method.
In assay [4] the test system is Klebsiella pneumoniae. The assay is described as follows: Antimicrobial activity against ESBL producing Klebsiella pneumoniae assessed as resistant isolate by broth microdilution method.
The subject of assay [5] is Proteus mirabilis. The assay can be described thus: Antimicrobial activity against Non-ESBL Proteus mirabilis assessed as resistant isolate by broth microdilution method.
Assay [6] has as its system Enterobacter cloacae. The assay can be described thus: Antimicrobial activity against Enterobacter cloacae with nonderepressed AmpC beta-lactamsae assessed as resistant isolate by broth microdilution method.
The test system of assay [7] is Enterobacter cloacae. The assay can be described thus: Antimicrobial activity against Enterobacter cloacae with derepressed AmpC beta-lactamsae assessed as resistant isolate by broth microdilution method.
Assay [8] has as its system Pseudomonas aeruginosa. The assay can be described thus: Antimicrobial activity against imipenem susceptible Pseudomonas aeruginosa assessed as resistant isolate by broth microdilution method.
Assay [9] concerns Pseudomonas aeruginosa. The assay can be described thus: Antimicrobial activity against imipenem non-susceptible Pseudomonas aeruginosa assessed as resistant isolate by broth microdilution method.
Assay [10] concerns Acinetobacter. The assay can be described thus: Antimicrobial activity against imipenem susceptible Acinetobacter assessed as resistant isolate by broth microdilution method.
The subject of assay [11] is Staphylococcus aureus. The assay is described as follows: Antimicrobial activity against methicillin-resistant Staphylococcus aureus by broth microdilution method.
The subject of assay [12] is Streptococcus pneumoniae. The assay is described as follows: Antimicrobial activity against penicillin-resistant Streptococcus pneumoniae assessed as resistant isolate by broth microdilution method.
In assay [13] the test system is Enterobacteriaceae. The assay can be described thus: Antimicrobial activity against Enterobacteriaceae assessed as intermediate isolate by broth microdilution method.
For assay [14], the system named is Enterobacteriaceae. The assay is described as follows: Antimicrobial activity against Enterobacteriaceae assessed as resistant isolate by broth microdilution method.
Assay [15] deals with Proteus mirabilis. The assay can be described thus: Antimicrobial activity against Proteus mirabilis assessed as intermediate isolate by broth microdilution method.
For assay [16], the system named is Serratia marcescens. The assay can be described thus: Antimicrobial activity against Serratia marcescens assessed as intermediate isolate by broth microdilution method.
The subject of assay [17] is Pseudomonas aeruginosa. The assay can be described thus: Antimicrobial activity against Pseudomonas aeruginosa assessed as intermediate isolate by broth microdilution method.
For assay [18], the system named is Acinetobacter. The assay can be described thus: Antimicrobial activity against Acinetobacter assessed as intermediate isolate by broth microdilution method.
The test system of assay [19] is Staphylococcus aureus. The assay is described as follows: Antimicrobial activity against methicillin-susceptible Staphylococcus aureus assessed as susceptible isolate by broth microdilution method.
Assay [20] concerns Streptococcus pneumoniae. The assay is described as follows: Antimicrobial activity against […] assessed as susceptible isolate by broth microdilution method.
In assay [21] the test system is Klebsiella pneumoniae. The assay is described as follows: Antimicrobial activity against Klebsiella pneumoniae assessed as resistant isolate by broth microdilution method.
For assay [22], the system named is Enterobacteriaceae. The assay can be described thus: Antimicrobial activity against ceftazidime-susceptible Enterobacteriaceae by broth microdilution method in presence of Tazobactam.
Assay [23] concerns Enterobacteriaceae. The assay is described as follows: Antimicrobial activity against ceftazidime non-susceptible Enterobacteriaceae by broth microdilution method in presence of Tazobactam.
In assay [24] the test system is Enterobacteriaceae. The assay can be described thus: Antimicrobial activity against ceftazidime non-susceptible Enterobacteriaceae assessed as susceptible isolate by broth microdilution method in presence of Tazobactam.
Assay [25] deals with Escherichia coli. The assay can be described thus: Antimicrobial activity against Non-ESBL Escherichia coli assessed as susceptible isolate by broth microdilution method in presence of Tazobactam.
In assay [26] the test system is Escherichia coli. The assay is described as follows: Antimicrobial activity against Non-ESBL Escherichia coli assessed as intermediate isolate by broth microdilution method in presence of Tazobactam.
The subject of assay [27] is Escherichia coli. The assay is described as follows: Antimicrobial activity against ESBL producing Escherichia coli assessed as susceptible isolate by broth microdilution method in presence of Tazobactam.
Assay [28] concerns Escherichia coli. The assay is described as follows: Antimicrobial activity against ESBL producing Escherichia coli assessed as resistant isolate by broth microdilution method in presence of Tazobactam.
Assay [29] concerns Klebsiella pneumoniae. The assay is described as follows: Antimicrobial activity against ESBL producing Klebsiella pneumoniae by broth microdilution method in presence of Tazobactam.
In assay [30] the test system is Klebsiella pneumoniae. The assay can be described thus: Antimicrobial activity against Non-ESBL Klebsiella pneumoniae assessed as resistant isolate by broth microdilution method in presence of Tazobactam.
Assay [31] relates to Klebsiella pneumoniae. The assay is described as follows: Antimicrobial activity against ESBL producing Klebsiella pneumoniae assessed as intermediate isolate by broth microdilution method in presence of Tazobactam.
Assay [32] concerns Proteus mirabilis. The assay can be described thus: Antimicrobial activity against Non-ESBL Proteus mirabilis by broth microdilution method in presence of Tazobactam.
Assay [33] concerns Proteus mirabilis. The assay can be described thus: Antimicrobial activity against Non-ESBL Proteus mirabilis assessed as susceptible isolate by broth microdilution method in presence of Tazobactam.
Assay [34] has as its system Proteus mirabilis. The assay is described as follows: Antimicrobial activity against ESBL producing Proteus mirabilis assessed as intermediate isolate by broth microdilution method in presence of Tazobactam.
Assay [35] relates to Enterobacter cloacae. The assay is described as follows: Antimicrobial activity against Enterobacter cloacae with nonderepressed AmpC beta-lactamsae assessed as susceptible isolate by broth microdilution method in presence of Tazobactam.
The test system of assay [36] is Enterobacter cloacae. The assay is described as follows: Antimicrobial activity against Enterobacter cloacae with nonderepressed AmpC beta-lactamsae assessed as intermediate isolate by broth microdilution method in presence of Tazobactam.
For assay [37], the system named is Enterobacter cloacae. The assay can be described thus: Antimicrobial activity against Enterobacter cloacae with derepressed AmpC beta-lactamsae assessed as susceptible isolate by broth microdilution method in presence of Tazobactam.
The test system of assay [38] is Enterobacter cloacae. The assay can be described thus: Antimicrobial activity against Enterobacter cloacae with derepressed AmpC beta-lactamsae assessed as intermediate isolate by broth microdilution method in presence of Tazobactam.
For assay [39], the system named is Enterobacter cloacae. The assay is described as follows: Antimicrobial activity against Enterobacter cloacae with derepressed AmpC beta-lactamsae assessed as resistant isolate by broth microdilution method in presence of Tazobactam.
Assay [40] deals with Citrobacter. The assay can be described thus: Antimicrobial activity against Citrobacter with derepressed AmpC beta-lactamsae assessed as susceptible isolate by broth microdilution method in presence of Tazobactam.
Assay [41] deals with Citrobacter. The assay can be described thus: Antimicrobial activity against Citrobacter with derepressed AmpC beta-lactamsae assessed as intermediate isolate by broth microdilution method in presence of Tazobactam.
In assay [42] the test system is Citrobacter. The assay can be described thus: Antimicrobial activity against Citrobacter with derepressed AmpC beta-lactamsae assessed as resistant isolate by broth microdilution method in presence of Tazobactam.
For assay [43], the system named is Serratia marcescens. The assay is described as follows: Antimicrobial activity against Ceftazidime non-susceptible Serratia marcescens by broth microdilution method in presence of tazobactam.
The test system of assay [44] is Serratia marcescens. The assay is described as follows: Antimicrobial activity against Ceftazidime susceptible Serratia marcescens assessed as resistant isolate by broth microdilution method in presence of tazobactam.
For assay [45], the system named is Pseudomonas aeruginosa. The assay is described as follows: Antimicrobial activity against ceftazidime susceptible Pseudomonas aeruginosa by broth microdilution method in presence of Tazobactam.
The test system of assay [46] is Pseudomonas aeruginosa. The assay is described as follows: Antimicrobial activity against ceftazidime susceptible Pseudomonas aeruginosa assessed as susceptible isolate by broth microdilution method in presence of Tazobactam.
Assay [47] has as its system Pseudomonas aeruginosa. The assay can be described thus: Antimicrobial activity against Ceftazidime non-susceptible Pseudomonas aeruginosa assessed as resistant isolate by broth microdilution method in presence of tazobactam.
Assay [48] relates to Pseudomonas aeruginosa. The assay is described as follows: Antimicrobial activity against imipenem non-susceptible Pseudomonas aeruginosa assessed as susceptible isolate by broth microdilution method in presence of Tazobactam.
The test system of assay [49] is Acinetobacter. The assay is described as follows: Antimicrobial activity against imipenem susceptible Acinetobacter assessed as susceptible isolate by broth microdilution method in presence of Tazobactam.
For assay [50], the system named is Acinetobacter. The assay can be described thus: Antimicrobial activity against imipenem susceptible Acinetobacter assessed as intermediate isolate by broth microdilution method in presence of Tazobactam.

≈ marks a conversion by molar mass, not a printed value.

In the case of `CC(C)(O/N=C(\C(=O)N[C@@H]1C(=O)N2C(C(=O)[O-])=C(C[n+]3ccccc3)CS[C@H]12)c1csc(N)n1)C(=O)O` [CEFTAZIDIME], the Activity with Escherichia coli [1] stood at 0.9%; in the assay with Escherichia coli [2] it was 56.7%; with Klebsiella pneumoniae [3], 0.6%; in the assay on Klebsiella pneumoniae [4] it was 95.5%; with Proteus mirabilis [5] it was 0.3%; with Enterobacter cloacae [6], 5.7%. The Activity is listed as 97.1% with Enterobacter cloacae [7], 6.9% in the assay on Pseudomonas aeruginosa [8], 18.4% with Pseudomonas aeruginosa [9] and 27.7% in the assay on Acinetobacter [10].
Broadly, the MIC50 is an inhibitory concentration at the 50% level, which refers to growth in some studies and to a panel of isolates in others. The term MIC90 denotes an inhibitory concentration at the 90% level, which refers to growth in some studies and to a panel of isolates in others. In the assay with Staphylococcus aureus [11], `C[C@@H](O)[C@H]1C(=O)N2C(C(=O)O)=C(S[C@@H]3CN[C@H](CNS(N)(=O)=O)C3)[C@H](C)[C@H]12` [DORIPENEM] registered an MIC50 of 0.5 µg/mL (≈ 1.19 µM) and an MIC90 of 8 µg/mL (≈ 19 µM).
For the compound `C[C@@H](O)[C@H]1C(=O)N2C(C(=O)O)=C(SCCNC=N)C[C@H]12` [IMIPENEM ANHYDROUS], the Activity in the assay with Streptococcus pneumoniae [12] was 2.1%; in the assay on Enterobacteriaceae [13], 0.4%; in the assay with Enterobacteriaceae [14] it was 0.1%; with Proteus mirabilis [15] it was 2.5%; in the assay with Proteus mirabilis [5], 0.2%; in the assay with Serratia marcescens [16] it was 0.3%. Further, the Activity in the assay with Pseudomonas aeruginosa [17] is given as 7.7%; in the assay with Acinetobacter [18], 0.7%; in the assay on Staphylococcus aureus [19], 100%; in the assay with Streptococcus pneumoniae [20], 99.9%. In the assay on Staphylococcus aureus [11], this compound gave an MIC50 of 0.25 µg/mL (≈ 0.835 µM). Also, the MIC90 in the assay on Staphylococcus aureus [11] was 8 µg/mL (≈ 26.7 µM).
Regarding `C[C@@H](O)[C@H]1C(=O)N2C(C(=O)O)=C(S[C@@H]3CN[C@H](C(=O)N(C)C)C3)[C@H](C)[C@H]12` [MEROPENEM], the Activity with Streptococcus pneumoniae [12] turned out to be 2.3%; in the assay on Enterobacteriaceae [13] it was 0%; in the assay with Enterobacteriaceae [14], 0.1%; in the assay on Klebsiella pneumoniae [21], 0.3%; in the assay on Klebsiella pneumoniae [3], 0.2%; in the assay with Klebsiella pneumoniae [4], 4.5%. Further, the Activity was found to be 0% in the assay with Proteus mirabilis [15]; 0% with Serratia marcescens [16]; 4.6% in the assay with Pseudomonas aeruginosa [17]; 40.6% in the assay with Pseudomonas aeruginosa [9]; 1.4% in the assay on Acinetobacter [18]; 0.4% with Acinetobacter [10]. Also, the Activity with Staphylococcus aureus [19] and in the assay on Streptococcus pneumoniae [20] was 100% throughout.
For `CCN1CCN(C(=O)N[C@@H](C(=O)N[C@@H]2C(=O)N3[C@@H]2SC(C)(C)[C@@H]3C(=O)O)c2ccccc2)C(=O)C1=O` [PIPERACILLIN], the MIC50 was 4 µg/mL in the assay on Enterobacteriaceae [22]; 128 µg/mL with Enterobacteriaceae [23]; greater than 128 µg/mL in the assay with Klebsiella pneumoniae [29]; 0.5 µg/mL with Proteus mirabilis [32]; 64 µg/mL in the assay on Serratia marcescens [43]; 16 µg/mL with Pseudomonas aeruginosa [45]. Also, the MIC90 in the assay with Enterobacteriaceae [22] was 8 µg/mL; with Enterobacteriaceae [23], greater than 128 µg/mL; in the assay with Klebsiella pneumoniae [29], greater than 128 µg/mL; in the assay on Proteus mirabilis [32] it was 2 µg/mL; in the assay with Serratia marcescens [43], greater than 128 µg/mL; in the assay on Pseudomonas aeruginosa [45], 64 µg/mL. For the same compound, the Activity in the assay on Enterobacteriaceae [24] is reported as 15.6%; with Escherichia coli [25] it was 93.6%; in the assay on Escherichia coli [26], 3.2%; in the assay with Escherichia coli [27], 53.3%; with Escherichia coli [28] it was 30%; in the assay on Klebsiella pneumoniae [30], 1.7%. Moreover, the Activity was found to be 11.4% with Klebsiella pneumoniae [31]; 99.4% in the assay on Proteus mirabilis [33]; 0% in the assay on Proteus mirabilis [34]; 93.3% with Enterobacter cloacae [35]; 3.2% in the assay with Enterobacter cloacae [36]; 5.8% in the assay with Enterobacter cloacae [37]. The Activity is given as 11.7% with Enterobacter cloacae [38]; 82.5% in the assay with Enterobacter cloacae [39]; 3.6% with Citrobacter [40]; 29.1% with Citrobacter [41]; 67.3% with Citrobacter [42]; 1.9% in the assay on Serratia marcescens [44]. Besides, the Activity with Pseudomonas aeruginosa [46] amounted to 96.3%; with Pseudomonas aeruginosa [47], 82.7%; in the assay on Pseudomonas aeruginosa [48], 72.9%; in the assay with Acinetobacter [49], 52.1%; with Acinetobacter [50], 18.1%.
